Results: patent publication US7169817B2, “Bis-aromatic alkanols” (IRM LLC, priority 2002, dated 2007)

Columns and labels:
Assay in all cases: GTPγS binding assay using S1P receptor/HEK293 membrane preparations
Type in all cases: biochemical
Conditions in all cases: membranes of transiently transfected HEK293 cells
S1P3 = molecular target: T1, S1P3 (Homo sapiens, UniProt Q99500)
T1 construct: expressed in transfected cells; host or cells: HEK293 (transient, calcium phosphate); crude membranes
Description: (§1) A. In vitro: Binding Affinity of Compounds of Formula I to Individual Human S1P Receptors may be Determined in the Following Assays:
(§2) Transient Transfection of Human S1P Receptors into HEK293 Cells
(§3) EDG receptors and Gi proteins are cloned, and equal amounts of 4 cDNAs for the EDG receptor, Gi-α, Gi-β and Gi-γ are mixed and used to transfect monolayers of HEK293 cells using the calcium phosphate precipitate method (M. Wigler et al., Cell. 1977;11;223 and D S. Im et al., Mol. Pharmacol. 2000;57;753). Briefly, a DNA mixture containing 25 μg of DNA and 0.25 M CaCl is added to HEPES-buffered 2 mM Na2HPO4. Subconfluent monolayers of HEK293 cells are poisoned with […] chloroquine, and the DNA precipitate is then applied to the cells. After 4 hours, the monolayers are washed with phosphate-buffered saline and re-fed media (90% 1:1 Dulbecco's modified essential media (DMEM):F-12+10% fetal bovine serum). The cells are harvested 48–72 hours after addition of the DNA by scraping in HME buffer (in mM: 20 HEPES, 5 MgCl2, 1 EDTA, pH 7.4) containing 10% sucrose on ice, and disrupted using a Dounce homogenizer. After centrifugation at 800×g, the supernatant is diluted with HME without sucrose and centrifuged at 100,000×g for 1 hour. The resulting pellet is rehomogenized and centrifuged a second hour at 100,000×g. This crude membrane pellet is resuspended in HME with sucrose, aliquoted, and snap-frozen by immersion in liquid nitrogen. The membranes are stored at […] Protein concentration is determined spectroscopically by the Bradford protein assay.
(§4) GTPγS Binding Assay Using S1P Receptor/HEK293 Membrane Preparations
(§5) GTPγS binding experiments are performed as described by D S. Im et al., Mol. Pharmacol. 2000; 57:753. Ligand-mediated GTPγS binding to G-proteins is measured in GTP binding buffer (in mM: 50 HEPES, 100 NaCl, 10 MgCl2, pH 7.5) using 25 μg of a membrane preparation from transiently transfected HEK293 cells. Ligand is added to membranes in the presence of 10 μM GDP and 0.1 nM [^35S]GTPγS (1200 Ci/mmol) and incubated at 30° C. for 30 min. Bound GTPγS is separated from unbound using the Brandel harvester (Gaithersburg, Md.) and counted with a liquid scintillation counter.

S1P4 = molecular target: T2, S1P4 (Homo sapiens, UniProt O95977)
T2 construct: expressed in transfected cells; host or cells: HEK293 (transient, calcium phosphate); crude membranes
T2 sequence (O95977 1-384): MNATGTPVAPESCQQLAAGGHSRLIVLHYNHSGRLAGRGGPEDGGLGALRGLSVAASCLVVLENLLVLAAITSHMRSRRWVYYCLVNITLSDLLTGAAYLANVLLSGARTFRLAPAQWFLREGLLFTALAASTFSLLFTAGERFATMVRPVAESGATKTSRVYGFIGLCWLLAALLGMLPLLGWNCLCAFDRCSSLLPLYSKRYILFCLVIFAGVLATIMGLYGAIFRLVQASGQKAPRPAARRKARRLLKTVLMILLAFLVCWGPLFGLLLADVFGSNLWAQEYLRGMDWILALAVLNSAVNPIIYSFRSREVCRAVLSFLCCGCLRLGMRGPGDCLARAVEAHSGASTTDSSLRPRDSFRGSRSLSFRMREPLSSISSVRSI
Description: as §1, §2, §3, §4, §5

S1P5 = molecular target: T3, S1P5 (Homo sapiens, UniProt Q9H228)
T3 construct: expressed in transfected cells; host or cells: HEK293 (transient, calcium phosphate); crude membranes
T3 sequence (Q9H228 whole entry): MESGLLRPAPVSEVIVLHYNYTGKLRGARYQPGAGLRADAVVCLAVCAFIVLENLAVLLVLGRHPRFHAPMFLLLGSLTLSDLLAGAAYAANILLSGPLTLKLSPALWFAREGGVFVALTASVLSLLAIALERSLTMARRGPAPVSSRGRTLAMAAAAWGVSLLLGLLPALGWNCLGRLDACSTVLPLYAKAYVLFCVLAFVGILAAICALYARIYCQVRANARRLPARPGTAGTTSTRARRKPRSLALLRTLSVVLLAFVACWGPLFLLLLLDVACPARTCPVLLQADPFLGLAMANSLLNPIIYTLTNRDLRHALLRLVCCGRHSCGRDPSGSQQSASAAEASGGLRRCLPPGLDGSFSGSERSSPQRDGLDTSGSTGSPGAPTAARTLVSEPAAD
Description: as §1, §2, §3, §4, §5

S1P1 = molecular target: T4, S1P1 (Homo sapiens, UniProt P21453)
T4 construct: expressed in transfected cells; host or cells: HEK293 (transient, calcium phosphate); crude membranes
T4 sequence (P21453 whole entry): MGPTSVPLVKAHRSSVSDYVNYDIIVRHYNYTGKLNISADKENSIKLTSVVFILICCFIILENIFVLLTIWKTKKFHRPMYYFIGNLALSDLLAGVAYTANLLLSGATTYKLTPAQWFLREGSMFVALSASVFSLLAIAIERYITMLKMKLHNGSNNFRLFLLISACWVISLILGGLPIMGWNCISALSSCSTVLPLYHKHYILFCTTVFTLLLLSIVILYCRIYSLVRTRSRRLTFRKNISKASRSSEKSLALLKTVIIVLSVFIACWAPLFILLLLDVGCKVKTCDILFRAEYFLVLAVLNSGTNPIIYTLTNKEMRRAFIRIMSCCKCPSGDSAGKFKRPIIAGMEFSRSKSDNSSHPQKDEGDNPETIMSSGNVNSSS
Description: as §1, §2, §3, §4, §5

S1P2 = molecular target: T5, S1P2 (Homo sapiens, UniProt O95136)
T5 construct: expressed in transfected cells; host or cells: HEK293 (transient, calcium phosphate); crude membranes
T5 sequence (O95136 whole entry): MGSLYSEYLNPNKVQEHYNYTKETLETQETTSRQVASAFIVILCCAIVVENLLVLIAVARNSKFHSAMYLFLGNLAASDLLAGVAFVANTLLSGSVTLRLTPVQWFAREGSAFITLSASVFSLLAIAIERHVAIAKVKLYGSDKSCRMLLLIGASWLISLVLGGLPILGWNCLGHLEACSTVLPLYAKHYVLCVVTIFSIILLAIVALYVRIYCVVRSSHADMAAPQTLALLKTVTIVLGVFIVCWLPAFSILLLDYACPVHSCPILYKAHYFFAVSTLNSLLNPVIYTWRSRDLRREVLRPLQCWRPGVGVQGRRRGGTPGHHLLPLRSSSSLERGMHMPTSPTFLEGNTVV
Description: as §1, §2, §3, §4, §5

T1 sequence (Q99500 whole entry): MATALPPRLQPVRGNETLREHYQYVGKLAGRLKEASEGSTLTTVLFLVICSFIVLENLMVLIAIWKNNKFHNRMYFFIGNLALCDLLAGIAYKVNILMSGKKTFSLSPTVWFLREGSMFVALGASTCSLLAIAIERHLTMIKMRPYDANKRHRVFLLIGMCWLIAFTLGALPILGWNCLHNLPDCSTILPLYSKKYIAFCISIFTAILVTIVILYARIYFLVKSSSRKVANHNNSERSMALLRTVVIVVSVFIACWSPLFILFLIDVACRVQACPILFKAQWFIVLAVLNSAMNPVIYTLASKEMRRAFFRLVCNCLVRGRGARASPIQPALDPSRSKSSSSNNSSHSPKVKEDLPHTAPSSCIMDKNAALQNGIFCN

Structure (SMILES): CCCCCc1ccc(-c2ccc(CCC(N)(CO)CO)cc2)cc1 [Example 36]
- EC50 (S1P3): > 10000 nM
- EC50 (S1P4): 1.2 nM
- EC50 (S1P5): 1.1 nM
- EC50 (S1P1): 0.33 nM
- EC50 (S1P2): > 10000 nM

Structure (SMILES): CCCc1cc(-c2ccc(-c3ccc(CCC(N)(CO)CO)cc3)cc2)no1 [Example 41]
- EC50 (S1P3): 53.8 nM
- EC50 (S1P4): > 10000 nM
- EC50 (S1P5): 2.1 nM
- EC50 (S1P1): 0.16 nM
- EC50 (S1P2): > 10000 nM

Structure (SMILES): NC(CO)(CO)CCc1ccc(-c2ccc(OCc3ccc(F)c(F)c3)cc2)cc1 [Example 63]
- EC50 (S1P3): 1.9 nM
- EC50 (S1P4): > 10000 nM
- EC50 (S1P5): 0.1 nM
- EC50 (S1P1): 0.07 nM
- EC50 (S1P2): > 10000 nM
